From patent publication US20220062240A1, “METHODS OF TREATING CANCER USING A CLK INHIBITOR” (BioSplice Therapeutics, Inc., priority 2018, published 2022)
Read-outs that look alike come from different tables or passages of the source.

Assays:
[1] = tested on: pancreatic cancer (8 cell lines); test: CellTiter-Glo Viability Assay, pancreatic cancer; assay type: cell-based; conditions: Homo sapiens, inhibition of cancer cell proliferation
CLK2 = target: T1, CLK2 (Homo sapiens, UniProt P49760); test: CLK2 kinase activity assay (Z-lyte, Ser/Thr 6 peptide); assay type: biochemical; conditions: recombinant CLK2 kinase, ATP 60 μM; read-out: EC50
T1 construct: purchased Thermo Fisher (Life Technologies), Z'-LYTE Kinase Assay Kits
T1 sequence (P49760 whole entry): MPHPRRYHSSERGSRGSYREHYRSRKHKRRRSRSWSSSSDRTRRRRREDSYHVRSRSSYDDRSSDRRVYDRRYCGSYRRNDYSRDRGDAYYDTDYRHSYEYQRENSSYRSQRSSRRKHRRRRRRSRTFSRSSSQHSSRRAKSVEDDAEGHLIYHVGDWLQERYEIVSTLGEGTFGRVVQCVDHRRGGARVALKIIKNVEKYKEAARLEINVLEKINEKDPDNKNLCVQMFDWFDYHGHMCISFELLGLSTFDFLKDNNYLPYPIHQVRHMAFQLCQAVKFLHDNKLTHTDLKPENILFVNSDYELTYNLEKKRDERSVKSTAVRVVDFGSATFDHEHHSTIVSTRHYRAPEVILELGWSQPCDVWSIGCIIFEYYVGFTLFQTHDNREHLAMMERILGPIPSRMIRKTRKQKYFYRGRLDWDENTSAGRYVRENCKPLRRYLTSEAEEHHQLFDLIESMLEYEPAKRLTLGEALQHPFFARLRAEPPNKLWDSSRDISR
Procedure: All reactions were performed in duplicate.

[2] = tested on: liver cancer (3 cell lines); test: CellTiter-Glo Viability Assay, liver cancer; assay type: cell-based; conditions: Homo sapiens, inhibition of cancer cell proliferation
CLK3 = CLK3 (Homo sapiens, UniProt P49761); test: CLK3 kinase activity assay (Z-lyte, Ser/Thr 18 peptide)
Sequence of CLK3 (P49761 whole entry): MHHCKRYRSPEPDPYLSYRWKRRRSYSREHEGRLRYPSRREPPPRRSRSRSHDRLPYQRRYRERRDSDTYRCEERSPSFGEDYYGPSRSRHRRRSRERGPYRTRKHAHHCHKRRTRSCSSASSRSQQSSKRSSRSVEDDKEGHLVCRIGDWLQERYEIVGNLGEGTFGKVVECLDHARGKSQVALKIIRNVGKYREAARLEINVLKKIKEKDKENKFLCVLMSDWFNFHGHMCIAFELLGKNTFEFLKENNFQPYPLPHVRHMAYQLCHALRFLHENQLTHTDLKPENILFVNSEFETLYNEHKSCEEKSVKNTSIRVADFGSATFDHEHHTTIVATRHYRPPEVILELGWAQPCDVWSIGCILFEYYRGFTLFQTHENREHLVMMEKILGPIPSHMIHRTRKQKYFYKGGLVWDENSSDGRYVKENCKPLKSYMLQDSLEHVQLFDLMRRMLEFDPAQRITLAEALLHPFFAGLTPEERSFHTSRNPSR

[3] = tested on: colorectal cancer (6 cell lines); test: CellTiter-Glo Viability Assay, colorectal cancer; assay type: cell-based; conditions: Homo sapiens, inhibition of cancer cell proliferation
[4] = tested on: haematopoietic & lymphoid tumors (13 cell lines); test: CellTiter-Glo Viability Assay, haematopoietic & lymphoid tumors; assay type: cell-based; conditions: Homo sapiens, inhibition of cancer cell proliferation
[5] = tested on: lung cancer (4 cell lines); test: CellTiter-Glo Viability Assay, lung cancer; assay type: cell-based; conditions: Homo sapiens, inhibition of cancer cell proliferation
HCC1599 = test: CellTiter-Glo Viability Assay, breast cancer; assay type: cell-based; conditions: Homo sapiens, 96 h; HCC1599, breast cancer, four days; read-out: EC50
CAMA1 = test: CellTiter-Glo Viability Assay, breast cancer; assay type: cell-based; conditions: Homo sapiens, CAMA-1, 96 h; CAMA1, breast cancer, four days; read-out: EC50
BT-549 = test: CellTiter-Glo Viability Assay, breast cancer; assay type: cell-based; conditions: Homo sapiens, 96 h; BT-549, breast cancer, four days; read-out: EC50
T47D = test: CellTiter-Glo Viability Assay, breast cancer; assay type: cell-based; conditions: Homo sapiens, 96 h, breast cancer, four days, read-out: EC50
ZR-75-1 = test: CellTiter-Glo Viability Assay, breast cancer; assay type: cell-based; conditions: Homo sapiens, 96 h; ZR-75-1, breast cancer, four days; read-out: EC50
MCF7 = test: CellTiter-Glo Viability Assay, breast cancer; assay type: cell-based; conditions: Homo sapiens, 96 h; MCF7, breast cancer, four days; read-out: EC50
DU4475 = test: CellTiter-Glo Viability Assay, breast cancer; assay type: cell-based; conditions: Homo sapiens, DU-4475, 96 h; DU4475, breast cancer, four days; read-out: EC50
MDA-MB-231-Luc = test: CellTiter-Glo Viability Assay, breast cancer; assay type: cell-based; conditions: Homo sapiens, 96 h; MDA-MB-231-Luc, breast cancer, four days; read-out: EC50
[6] = tested on: prostate cancer (5 cell lines); test: CellTiter-Glo Viability Assay, prostate cancer; assay type: cell-based; conditions: Homo sapiens
[7] = tested on: ovarian cancer (4 cell lines); test: CellTiter-Glo Viability Assay, ovarian cancer; assay type: cell-based; conditions: Homo sapiens, inhibition of cancer cell proliferation
all 50 cell lines = test: CellTiter-Glo Viability Assay, average across all cell lines; assay type: cell-based; conditions: Homo sapiens; across all 50 cell lines; read-out: average EC50 for inhibition of cancer cell proliferation
Procedure, shortened: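 Cells were plated at 300-3,000 per well in their own media, then treated with compound in duplicate, with DMSO wells as controls. After four days at 37° C and 5% CO2, CellTiter-Glo was added, and luminescence was read. EC50s were fitted.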

[8] = BXPC-3, BxPC3 cell line, read-out: Pancreatic cancer, EC50 BxPC3
[9] = CAPAN-1, Capan1 cell line, read-out: Pancreatic cancer, EC50 Capan1
[10] = Capan-2, Capan2 cell line, read-out: Pancreatic cancer, EC50 Capan2
[11] = MIA PaCa-2 cell line, read-out: Pancreatic cancer, EC50 MIA PaCa-2
[12] = PANC 05.04 cell line, read-out: Pancreatic cancer, EC50 PANC 05.04
[13] = PANC-1 cell line, read-out: Pancreatic cancer, EC50 PANC-1
[14] = UPAFII cell line, read-out: Pancreatic cancer, EC50 UPAFII
[15] = SNU-398, SNU398 cell line, read-out: Liver cancer, EC50 SNU398
[16] = HEPG2 cell line, read-out: Liver cancer, EC50 HEPG2
[17] = PLC/PRF/5 cell line, read-out: Liver cancer, EC50 PLC/PRF/5
[18] = HCT-116, HCT116 cell line, read-out: Colorectal cancer, EC50 (μM) HCT116
[19] = HT-29, HT29 cell line, read-out: Colorectal cancer, EC50 (μM) HT29
[20] = SW-620, SW620 cell line, read-out: Colorectal cancer, EC50 (μM) SW620
[21] = DLD-1 cell line, read-out: Colorectal cancer, EC50 (μM) DLD-1
[22] = SW48 cell line, read-out: Colorectal cancer, EC50 (μM) SW48
[23] = SW480 cell line, read-out: Colorectal cancer, EC50 (μM) SW480
[24] = DND41, DND-41 cell line, read-out: Haematopoietic & Lymphoid tumors, EC50 (μM) DND-41
[25] = MV4-11, MV-4-11 cell line, read-out: Haematopoietic & Lymphoid tumors, EC50 (μM) MV-4-11
[26] = Rec1, REC-1 cell line, read-out: Haematopoietic & Lymphoid tumors, EC50 (μM) REC-1
[27] = SU-DHL-4, SUDHL4 cell line, read-out: Haematopoietic & Lymphoid tumors, EC50 (μM) SUDHL4
[28] = HL-60 cell line, read-out: Haematopoietic & Lymphoid tumors, EC50 (μM) HL-60
[29] = JM1 cell line, read-out: Haematopoietic & Lymphoid tumors, EC50 (μM) JM1
[30] = JURKAT, Clone E6-1 cell line, read-out: Haematopoietic & Lymphoid tumors, EC50 (μM) JURKAT, Clone E6-1
[31] = JeKo-1 cell line, read-out: Haematopoietic & Lymphoid tumors, EC50 (μM) JeKo-1
[32] = KASUMI-1 cell line, read-out: Haematopoietic & Lymphoid tumors, EC50 (μM) KASUMI-1
[33] = Loucy cell line, read-out: Haematopoietic & Lymphoid tumors, EC50 (μM) Loucy
[34] = MOLT-4 cell line, read-out: Haematopoietic & Lymphoid tumors, EC50 (μM) MOLT-4
[35] = TF-1 cell line, read-out: Haematopoietic & Lymphoid tumors, EC50 (μM) TF-1
[36] = TOLEDO cell line, read-out: Haematopoietic & Lymphoid tumors, EC50 (μM) TOLEDO
[37] = A-427, A427 cell line, read-out: Lung cancer, EC50 (μM) A427
[38] = HCC78, HCC-78 cell line, read-out: Lung cancer, EC50 (μM) HCC-78
[39] = NCI-H460 cell line, read-out: Lung cancer, EC50 (μM) NCI-H460
[40] = NCI-H522 cell line, read-out: Lung cancer, EC50 (μM) NCI-H522
[41] = DU-145, read-out: Prostate cancer EC50 Du-145
[42] = PC-3, PC3 cell line, inhibition of cancer cell proliferation, read-out: Prostate cancer EC50 PC3
[43] = 22Rv1 cell line, inhibition of cancer cell proliferation, read-out: Prostate cancer EC50 22Rv1
[44] = LNCap clone FGC cell line, inhibition of cancer cell proliferation, read-out: Prostate cancer EC50 LNCap clone FGC
[45] = VCaP (Sigma) cell line, inhibition of cancer cell proliferation, read-out: Prostate cancer EC50 VCaP (Sigma)
[46] = PA-1, PA1 cell line, read-out: Ovarian cancer, EC50 (μM) PA1
[47] = TOV112D, TOV-112D cell line, read-out: Ovarian cancer, EC50 (μM) TOV-112D
[48] = OV-90 cell line, read-out: Ovarian cancer, EC50 (μM) OV-90
[49] = OVCAR-3 cell line, read-out: Ovarian cancer, EC50 (μM) OVCAR-3

Work on Cc1n[nH]c2cc(F)c(-c3cncc(CN4CCNCC4)c3)cc12 [Compound 63] yielded an EC50 [1, 8] of 9160 nM, an EC50 [1, 9] of 4840 nM and an EC50 [1, 10] of 8870 nM. For the same molecule, the EC50 [1, 11] was 1590 nM, the EC50 [1, 12] was 5510 nM and the EC50 [1, 13] was 5640 nM. The EC50 [1, 14] was 3820 nM, the EC50 (CLK2) was 12 nM and the EC50 [2, 15] was 1370 nM. It also gave an EC50 [2, 16] of 3440 nM, an EC50 [2, 17] of 9520 nM and an EC50 (CLK3) of 343 nM. It also gave an EC50 [3, 18] of 2.93 µM, an EC50 [3, 19] of 6.16 µM and an EC50 [3, 20] of 1.82 µM. It also gave an EC50 [3, 21] of 5.01 µM, an EC50 [3, 22] of 1.49 µM and an EC50 [3, 23] of 3.24 µM. It also gave an EC50 [4, 24] of 7.09 µM, an EC50 [4, 25] of 3.34 µM and an EC50 [4, 26] of 3.52 µM. For the same molecule, the EC50 [4, 27] was 3.46 µM, the EC50 [4, 28] was 8.7 µM and the EC50 [4, 29] was 1.69 µM. The EC50 [4, 30] was over 10 µM, the EC50 [4, 31] was 1.49 µM and the EC50 [4, 32] was 3.19 µM. It also gave an EC50 [4, 33] of 3.72 µM, an EC50 [4, 34] of 7.07 µM and an EC50 [4, 35] of 6 µM. The EC50 [4, 36] was 2.21 µM, the EC50 [5, 37] was 4.18 µM and the EC50 [5, 38] was 8.18 µM. For the same molecule, the EC50 [5, 39] was 7.41 µM, the EC50 [5, 40] was 3.3 µM and the EC50 (HCC1599) was 2330 nM. The EC50 (CAMA1) was 5210 nM, the EC50 (BT-549) was 4740 nM and the EC50 (T47D) was 8470 nM. For the same molecule, the EC50 (ZR-75-1) was 6810 nM, the EC50 (MCF7) was over 10000 nM and the EC50 (DU4475) was 3870 nM. It also gave an EC50 (MDA-MB-231-Luc) of 6470 nM, an EC50 [6, 41] of 6490 nM and an EC50 [6, 42] of 4420 nM. For the same molecule, the EC50 [6, 43] was 3980 nM, the EC50 [6, 44] was 6850 nM and the EC50 [6, 45] was 6660 nM. For the same molecule, the EC50 [7, 46] was 3.04 µM, the EC50 [7, 47] was 3.63 µM and the EC50 [7, 48] was 7.97 µM. For the same molecule, the EC50 [7, 49] was 2.62 µM and the EC50 (all 50 cell lines) was 5050 nM.

Work on CN1CCC(Oc2ccc(NC(=O)c3n[nH]c4cc(F)c(-c5cnn(C)c5)cc34)cc2)CC1 [Compound 61] yielded an EC50 [1, 8] of 2030 nM, an EC50 [1, 9] of 2090 nM and an EC50 [1, 10] of 2720 nM. It also gave an EC50 [1, 11] of 438 nM, an EC50 [1, 12] of 2260 nM and an EC50 [1, 13] of 2160 nM. For the same molecule, the EC50 [1, 14] was 1030 nM, the EC50 (CLK2) was 0.6 nM and the EC50 [2, 15] was 450 nM. For the same molecule, the EC50 [2, 16] was 1460 nM, the EC50 [2, 17] was 3160 nM and the EC50 (CLK3) was 49.1 nM. The EC50 [3, 18] was 0.611 µM, the EC50 [3, 19] was 1.7 µM and the EC50 [3, 20] was 0.418 µM. The EC50 [3, 21] was 0.644 µM, the EC50 [3, 22] was 0.151 µM and the EC50 [3, 23] was 0.769 µM. For the same molecule, the EC50 [4, 24] was 0.798 µM, the EC50 [4, 25] was 0.057 µM and the EC50 [4, 26] was 0.261 µM. For the same molecule, the EC50 [4, 27] was 0.779 µM, the EC50 [4, 28] was 1.64 µM and the EC50 [4, 29] was 0.237 µM. It also gave an EC50 [4, 30] of 0.88 µM, an EC50 [4, 31] of 0.201 µM and an EC50 [4, 32] of 0.273 µM. The EC50 [4, 33] was 0.581 µM, the EC50 [4, 34] was 0.999 µM and the EC50 [4, 35] was 1.31 µM. For the same molecule, the EC50 [4, 36] was 0.182 µM, the EC50 [5, 37] was 0.619 µM and the EC50 [5, 38] was 3.02 µM. For the same molecule, the EC50 [5, 39] was 0.856 µM, the EC50 [5, 40] was 0.57 µM and the EC50 (HCC1599) was 367 nM. For the same molecule, the EC50 (CAMA1) was 3850 nM, the EC50 (BT-549) was 786 nM and the EC50 (T47D) was 3550 nM. The EC50 (ZR-75-1) was 1840 nM, the EC50 (MCF7) was 3390 nM and the EC50 (DU4475) was 411 nM. It also gave an EC50 (MDA-MB-231-Luc) of 2040 nM, an EC50 [6, 41] of 1260 nM and an EC50 [6, 42] of 1230 nM. For the same molecule, the EC50 [6, 43] was 672 nM, the EC50 [6, 44] was 779 nM and the EC50 [6, 45] was 1480 nM. For the same molecule, the EC50 [7, 46] was 0.819 µM, the EC50 [7, 47] was 0.533 µM and the EC50 [7, 48] was 1.98 µM. The EC50 [7, 49] was 0.568 µM and the EC50 (all 50 cell lines) was 1220 nM.
